The source made the active and inactive calls.
How the values were obtained:
[1] = target: T1, Glycine--tRNA ligase (Homo sapiens, UniProt P41250)
T1 sequence (P41250 whole entry): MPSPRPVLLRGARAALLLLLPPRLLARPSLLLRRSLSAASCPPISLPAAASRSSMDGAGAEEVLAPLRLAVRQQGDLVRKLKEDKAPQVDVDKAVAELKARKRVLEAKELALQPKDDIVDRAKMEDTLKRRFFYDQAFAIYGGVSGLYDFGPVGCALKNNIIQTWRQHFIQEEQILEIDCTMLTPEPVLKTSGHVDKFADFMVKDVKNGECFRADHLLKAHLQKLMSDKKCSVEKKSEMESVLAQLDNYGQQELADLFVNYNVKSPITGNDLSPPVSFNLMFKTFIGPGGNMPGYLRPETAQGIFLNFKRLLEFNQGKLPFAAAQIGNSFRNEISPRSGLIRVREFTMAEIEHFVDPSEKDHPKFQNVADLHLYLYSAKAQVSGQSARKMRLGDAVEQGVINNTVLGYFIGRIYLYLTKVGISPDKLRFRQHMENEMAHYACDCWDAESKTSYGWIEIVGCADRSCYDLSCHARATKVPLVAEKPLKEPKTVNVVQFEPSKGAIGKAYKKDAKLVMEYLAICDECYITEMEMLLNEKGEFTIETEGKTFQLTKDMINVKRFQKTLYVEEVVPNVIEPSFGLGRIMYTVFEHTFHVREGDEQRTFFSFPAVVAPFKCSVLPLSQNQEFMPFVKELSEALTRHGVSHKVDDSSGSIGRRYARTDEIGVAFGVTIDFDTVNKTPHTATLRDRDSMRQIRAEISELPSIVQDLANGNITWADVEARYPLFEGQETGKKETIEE

[2] = target: Mitogen-activated protein kinase 9 (Homo sapiens, UniProt P45984)
[3] = target: T2, Serine/threonine-protein kinase ULK3 (Homo sapiens, UniProt Q6PHR2)
T2 sequence (Q6PHR2 whole entry): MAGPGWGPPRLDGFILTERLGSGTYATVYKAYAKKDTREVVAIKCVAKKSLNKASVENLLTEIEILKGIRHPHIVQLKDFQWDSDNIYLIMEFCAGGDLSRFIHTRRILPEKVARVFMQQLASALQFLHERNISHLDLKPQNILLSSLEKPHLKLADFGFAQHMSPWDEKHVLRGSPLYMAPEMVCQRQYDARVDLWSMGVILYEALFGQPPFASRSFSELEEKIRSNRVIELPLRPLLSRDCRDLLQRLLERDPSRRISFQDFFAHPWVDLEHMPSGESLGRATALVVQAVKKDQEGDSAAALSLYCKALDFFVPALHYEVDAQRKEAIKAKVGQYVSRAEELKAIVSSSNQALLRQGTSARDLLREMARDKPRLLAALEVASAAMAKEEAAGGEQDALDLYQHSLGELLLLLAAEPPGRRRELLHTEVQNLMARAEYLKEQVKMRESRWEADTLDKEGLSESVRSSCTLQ

[4] = target: T3, ATP-dependent 6-phosphofructokinase, platelet type (Homo sapiens, UniProt Q01813)
T3 sequence (Q01813 whole entry): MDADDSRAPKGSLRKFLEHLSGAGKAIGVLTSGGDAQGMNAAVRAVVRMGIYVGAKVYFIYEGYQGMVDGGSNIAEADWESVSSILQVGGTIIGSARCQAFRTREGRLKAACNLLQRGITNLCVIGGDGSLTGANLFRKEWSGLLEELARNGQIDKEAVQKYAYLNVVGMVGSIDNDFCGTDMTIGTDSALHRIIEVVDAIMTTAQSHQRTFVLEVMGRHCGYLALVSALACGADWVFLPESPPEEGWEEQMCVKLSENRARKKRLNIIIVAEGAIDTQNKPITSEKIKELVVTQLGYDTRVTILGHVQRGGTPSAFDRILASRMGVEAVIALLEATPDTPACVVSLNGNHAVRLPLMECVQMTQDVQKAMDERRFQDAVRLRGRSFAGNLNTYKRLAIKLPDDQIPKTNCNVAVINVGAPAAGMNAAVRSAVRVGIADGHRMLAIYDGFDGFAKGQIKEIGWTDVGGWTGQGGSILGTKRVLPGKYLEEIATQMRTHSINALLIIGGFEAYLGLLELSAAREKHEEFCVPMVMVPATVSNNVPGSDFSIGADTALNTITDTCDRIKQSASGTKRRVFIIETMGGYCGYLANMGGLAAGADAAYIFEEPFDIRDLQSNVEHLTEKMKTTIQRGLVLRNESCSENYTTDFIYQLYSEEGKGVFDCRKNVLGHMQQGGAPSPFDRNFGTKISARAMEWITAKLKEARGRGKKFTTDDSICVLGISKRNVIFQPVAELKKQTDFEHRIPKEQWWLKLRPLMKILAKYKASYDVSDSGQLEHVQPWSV

[5] = target: Tyrosine-protein kinase HCK (Homo sapiens, UniProt P08631)
[6] = target: T4, cGMP-dependent protein kinase 1 (Homo sapiens, UniProt Q13976)
T4 sequence (Q13976 whole entry): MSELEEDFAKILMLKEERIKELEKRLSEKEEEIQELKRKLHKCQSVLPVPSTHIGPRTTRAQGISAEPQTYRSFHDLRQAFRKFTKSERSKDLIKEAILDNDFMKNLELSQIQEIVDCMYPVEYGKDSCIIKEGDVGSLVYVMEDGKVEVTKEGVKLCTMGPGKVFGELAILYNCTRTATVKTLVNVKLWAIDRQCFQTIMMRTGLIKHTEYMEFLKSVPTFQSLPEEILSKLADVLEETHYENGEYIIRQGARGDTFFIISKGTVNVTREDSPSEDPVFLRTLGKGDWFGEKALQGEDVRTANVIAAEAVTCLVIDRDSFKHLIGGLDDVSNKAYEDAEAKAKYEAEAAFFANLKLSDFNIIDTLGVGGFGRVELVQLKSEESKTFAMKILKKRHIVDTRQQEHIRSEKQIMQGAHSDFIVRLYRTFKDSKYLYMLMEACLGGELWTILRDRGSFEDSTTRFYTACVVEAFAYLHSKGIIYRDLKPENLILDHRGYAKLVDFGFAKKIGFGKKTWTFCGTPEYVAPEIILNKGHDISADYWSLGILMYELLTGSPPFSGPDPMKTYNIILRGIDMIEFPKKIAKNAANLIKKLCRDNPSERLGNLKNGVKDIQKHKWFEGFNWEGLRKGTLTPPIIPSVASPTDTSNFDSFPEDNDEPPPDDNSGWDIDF
Also: in the data inactive means no Kd found up to 30 µM.

Chain of Tyrosine-protein kinase HCK (P08631 whole entry): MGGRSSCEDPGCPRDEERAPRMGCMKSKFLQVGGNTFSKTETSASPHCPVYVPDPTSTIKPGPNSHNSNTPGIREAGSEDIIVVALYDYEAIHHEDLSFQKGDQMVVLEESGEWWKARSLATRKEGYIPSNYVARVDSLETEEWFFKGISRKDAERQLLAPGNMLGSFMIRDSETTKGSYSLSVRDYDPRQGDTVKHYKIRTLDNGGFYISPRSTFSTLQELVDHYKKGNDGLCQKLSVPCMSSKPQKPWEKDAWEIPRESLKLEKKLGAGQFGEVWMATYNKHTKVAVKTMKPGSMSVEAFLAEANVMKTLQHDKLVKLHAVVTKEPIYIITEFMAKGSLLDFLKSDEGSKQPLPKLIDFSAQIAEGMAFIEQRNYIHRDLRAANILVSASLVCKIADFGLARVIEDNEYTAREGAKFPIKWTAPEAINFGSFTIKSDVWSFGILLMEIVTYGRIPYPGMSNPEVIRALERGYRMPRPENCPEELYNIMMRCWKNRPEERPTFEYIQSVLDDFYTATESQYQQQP
Chain of Mitogen-activated protein kinase 9 (P45984 whole entry): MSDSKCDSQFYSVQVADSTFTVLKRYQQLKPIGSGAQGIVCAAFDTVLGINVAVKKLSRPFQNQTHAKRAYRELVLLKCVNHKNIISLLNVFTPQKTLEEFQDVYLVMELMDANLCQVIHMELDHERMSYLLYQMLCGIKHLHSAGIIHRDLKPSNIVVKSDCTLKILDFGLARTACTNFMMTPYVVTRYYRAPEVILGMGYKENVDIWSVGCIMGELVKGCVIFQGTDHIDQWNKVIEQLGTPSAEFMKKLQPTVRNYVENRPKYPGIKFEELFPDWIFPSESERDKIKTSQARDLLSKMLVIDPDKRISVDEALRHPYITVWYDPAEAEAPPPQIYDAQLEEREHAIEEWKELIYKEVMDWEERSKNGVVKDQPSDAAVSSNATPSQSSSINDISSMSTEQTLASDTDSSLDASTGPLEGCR

Row | Kd [1] | Kd [2] | Kd [3] | Kd [4] | Kd [5] | Kd [6] | Compound
1 | > 30 µM (inactive) | > 30 µM (inactive) | > 30 µM (inactive) | > 30 µM (inactive) | 1.32 µM (active) | > 30 µM (inactive) | CNC(=O)c1nn(C)c2c1C(C)(C)Cc1cnc(Nc3ccc(N4CCN(C)CC4)cc3)nc1-2 [MILCICLIB]
2 | > 30 µM (inactive) | > 30 µM (inactive) | > 30 µM (inactive) | > 30 µM (inactive) | > 30 µM (inactive) | > 30 µM (inactive) | NC1(c2ccc(-c3nc4ccn5c(=O)[nH]nc5c4cc3-c3ccccc3)cc2)CCC1 [MK-2206]
3 | > 30 µM (inactive) | 1.93 µM (active) | > 30 µM (inactive) | > 30 µM (inactive) | > 30 µM (inactive) | > 30 µM (inactive) | CN(C[C@@H]1COCCO1)S(=O)(=O)Nc1ccc2ccc3ncc(-c4cnn(C)c4)cc3c(=O)c2c1 [MK-2461]
4 | > 30 µM (inactive) | > 30 µM (inactive) | > 30 µM (inactive) | > 30 µM (inactive) | > 30 µM (inactive) | > 30 µM (inactive) | FC(F)(F)c1ccc(/C=C/c2nc(COc3ccc(CCCCn4ccnn4)cc3)co2)cc1 [MUBRITINIB]
5 | > 30 µM (inactive) | > 30 µM (inactive) | > 30 µM (inactive) | > 30 µM (inactive) | > 30 µM (inactive) | > 30 µM (inactive) | COc1ncc(-c2ccc3nccc(-c4ccnnc4)c3c2)cc1NS(=O)(=O)c1ccc(F)cc1F [OMIPALISIB]
6 | > 30 µM (inactive) | > 30 µM (inactive) | 0.626 µM (active) | > 30 µM (inactive) | > 30 µM (inactive) | 0.808 µM (active) | Cc1nc(Nc2n[nH]c3c2CN(C(=O)N[C@H](CN(C)C)c2ccccc2)C3(C)C)c2sccc2n1 [PF-03758309]
7 | > 30 µM (inactive) | > 30 µM (inactive) | > 30 µM (inactive) | > 30 µM (inactive) | > 30 µM (inactive) | > 30 µM (inactive) | Cc1cnc(NC(=O)Nc2cc(Br)c(C)cc2OC[C@@H]2CNCCO2)cn1 [RABUSERTIB]
8 | > 30 µM (inactive) | > 30 µM (inactive) | > 30 µM (inactive) | > 30 µM (inactive) | > 30 µM (inactive) | > 30 µM (inactive) | N#CC1(c2ccc(NC(=O)c3cccnc3NCc3ccncc3)cc2)CCCC1 [RIVOCERANIB]
9 | > 30 µM (inactive) | > 30 µM (inactive) | > 30 µM (inactive) | > 30 µM (inactive) | > 30 µM (inactive) | 0.004 µM | O=c1[nH]ccc2cc(OC3CCNCC3)ccc12 [SAR-407899 FREE BASE]
10 | > 30 µM (inactive) | > 30 µM (inactive) | > 30 µM (inactive) | > 30 µM (inactive) | > 30 µM (inactive) | > 30 µM (inactive) | CO[C@H]1C[C@@H]2CC[C@@H](C)[C@@](O)(O2)C(=O)C(=O)N2CCCC[C@H]2C(=O)O[C@H]([C@H](C)C[C@@H]2CC[C@@H](O)[C@H](OC)C2)CC(=O)[C@H](C)/C=C(\C)[C@@H](O)[C@@H](OC)C(=O)[C@H](C)C[C@H](C)/C=C/C=C/C=C/1C [SIROLIMUS]
11 | > 30 µM (inactive) | > 30 µM (inactive) | > 30 µM (inactive) | > 30 µM (inactive) | 0.143 µM (active) | > 30 µM (inactive) | CCS(=O)(=O)c1cccc(-c2cc(C(=O)NC3CCN(C)CC3)c(C)c3[nH]c4ncc(C)cc4c23)c1 [TAK-901]
12 | > 30 µM (inactive) | > 30 µM (inactive) | > 30 µM (inactive) | > 30 µM (inactive) | > 30 µM (inactive) | > 30 µM (inactive) | CO[C@H]1C[C@@H]2CC[C@@H](C)[C@@](O)(O2)C(=O)C(=O)N2CCCC[C@H]2C(=O)O[C@H]([C@H](C)C[C@@H]2CC[C@@H](OC(=O)C(C)(CO)CO)[C@H](OC)C2)CC(=O)[C@H](C)/C=C(\C)[C@@H](O)[C@@H](OC)C(=O)[C@H](C)C[C@H](C)/C=C/C=C/C=C/1C [TEMSIROLIMUS]
13 | > 30 µM (inactive) | > 30 µM (inactive) | > 30 µM (inactive) | > 30 µM (inactive) | 1.16 µM (active) | > 30 µM (inactive) | COc1cc2c(Nc3ccc(Cl)c(Cl)c3F)ncnc2cc1OC[C@@H]1C[C@@H]2CN(C)C[C@@H]2C1 [TESEVATINIB]
14 | > 30 µM (inactive) | > 30 µM (inactive) | > 30 µM (inactive) | > 30 µM (inactive) | > 30 µM (inactive) | > 30 µM (inactive) | O=C(Cc1ccc(-c2ccc(OCCN3CCOCC3)cc2)cn1)NCc1ccccc1 [TIRBANIBULIN]
15 | > 30 µM (inactive) | > 30 µM (inactive) | > 30 µM (inactive) | > 30 µM (inactive) | > 30 µM (inactive) | > 30 µM (inactive) | O=C1NC(=O)[C@@H](c2cn3c4c(cccc24)CCC3)[C@@H]1c1c[nH]c2ccccc12 [TIVANTINIB]
16 | > 30 µM (inactive) | > 30 µM (inactive) | > 30 µM (inactive) | > 30 µM (inactive) | > 30 µM (inactive) | > 30 µM (inactive) | C[C@@H](NC(=O)c1ncnc(N)c1Cl)c1ncc(C(=O)Nc2cc(C(F)(F)F)c(Cl)cn2)s1 [TOVORAFENIB]

Row | Compound | Kd [1] | Kd [2] | Kd [3] | Kd [4] | Kd [5] | Kd [6]
17 | CCOc1cc2ncc(C#N)c(Nc3ccc(F)c(Cl)c3)c2cc1NC(=O)/C=C/CN(C)C [PELITINIB] | > 30 µM (inactive) | > 30 µM (inactive) | > 30 µM (inactive) | > 30 µM (inactive) | 1.18 µM (active) | > 30 µM (inactive)
18 | CCCCCCCCCCCCCCCCCCOP(=O)([O-])OC1CC[N+](C)(C)CC1 [PERIFOSINE] | > 30 µM (inactive) | > 30 µM (inactive) | > 30 µM (inactive) | > 30 µM (inactive) | > 30 µM (inactive) | > 30 µM (inactive)
19 | CN1CCN(CCOc2cc(OC3CCOCC3)c3c(Nc4c(Cl)ccc5c4OCO5)ncnc3c2)CC1 [SARACATINIB] | > 30 µM (inactive) | > 30 µM (inactive) | > 30 µM (inactive) | > 30 µM (inactive) | 0.1 µM (active) | > 30 µM (inactive)

Reference: ChEMBL document CHEMBL3991601, “The target landscape of clinical kinase drugs” (Science, 2017)
